# Measurements as given in the supplement of paper PMC10307832.
# Columns and labels:
# Assay in all cases: relative viability (nuclei count vs DMSO), 5 days (fraction); higher = more cells survive
# Dinaciclib + OSI-027 = compound: CCc1cnn2c(NCc3ccc[n+]([O-])c3)cc(N3CCCC[C@H]3CCO)nc12 [Dinaciclib] + COc1cccc2cc(-c3nc([C@H]4CC[C@H](C(=O)O)CC4)n4ncnc(N)c34)[nH]c12 [OSI-027] (partner 0.5 µM)
# Method in brief: (§1)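 After 5 days of treatment, lung cancer cells in 1536-well plates were fixed and stained in a single step (final 0.05% Triton X-100, 1% formaldehyde, 1 ug/ml Hoechst) and their nuclei counted on 4× images. Treatment had been applied by pin tool the day after seeding as one drug alone or as a fixed anchor-drug dose with five library-drug doses (not always all listed) in √10 steps. Relative viability is the nuclei count of treated wells divided by that of vehicle wells, and values are medians of duplicate plates.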
# Dinaciclib + Decitabine = compound: CCc1cnn2c(NCc3ccc[n+]([O-])c3)cc(N3CCCC[C@H]3CCO)nc12 [Dinaciclib] + Nc1ncn([C@H]2C[C@H](O)[C@@H](CO)O2)c(=O)n1 [Decitabine] (partner 2 µM)
# Method in brief: as §1
# Dinaciclib + Luminespib = compound: CCc1cnn2c(NCc3ccc[n+]([O-])c3)cc(N3CCCC[C@H]3CCO)nc12 [Dinaciclib] + CCNC(=O)c1noc(-c2cc(C(C)C)c(O)cc2O)c1-c1ccc(CN2CCOCC2)cc1 [Luminespib] (partner 0.01 µM)
# Method in brief: as §1
# Dinaciclib + Foretinib = compound: CCc1cnn2c(NCc3ccc[n+]([O-])c3)cc(N3CCCC[C@H]3CCO)nc12 [Dinaciclib] + COc1cc2c(Oc3ccc(NC(=O)C4(C(=O)Nc5ccc(F)cc5)CC4)cc3F)ccnc2cc1OCCCN1CCOCC1 [Foretinib] (partner 0.25 µM)
# Method in brief: as §1
# Dinaciclib + Alpelisib = compound: CCc1cnn2c(NCc3ccc[n+]([O-])c3)cc(N3CCCC[C@H]3CCO)nc12 [Dinaciclib] + Cc1nc(NC(=O)N2CCC[C@H]2C(N)=O)sc1-c1ccnc(C(C)(C)C(F)(F)F)c1 [Alpelisib] (partner 2 µM)
# Method in brief: as §1
Cell Line,relative viability (Dinaciclib + OSI-027; first compound 0.009487 µM),relative viability (Dinaciclib + OSI-027; first compound 0.03 µM),relative viability (Dinaciclib + OSI-027; first compound 0.09487 µM),relative viability (Dinaciclib + OSI-027; first compound 0.3 µM),relative viability (Dinaciclib + Decitabine; first compound 0.009487 µM),relative viability (Dinaciclib + Decitabine; first compound 0.03 µM),relative viability (Dinaciclib + Decitabine; first compound 0.09487 µM),relative viability (Dinaciclib + Decitabine; first compound 0.3 µM),relative viability (Dinaciclib + Luminespib; first compound 0.009487 µM),relative viability (Dinaciclib + Luminespib; first compound 0.03 µM),relative viability (Dinaciclib + Luminespib; first compound 0.09487 µM),relative viability (Dinaciclib + Luminespib; first compound 0.3 µM),relative viability (Dinaciclib + Foretinib; first compound 0.009487 µM),relative viability (Dinaciclib + Foretinib; first compound 0.03 µM),relative viability (Dinaciclib + Foretinib; first compound 0.09487 µM),relative viability (Dinaciclib + Foretinib; first compound 0.3 µM),relative viability (Dinaciclib + Alpelisib; first compound 0.009487 µM),relative viability (Dinaciclib + Alpelisib; first compound 0.03 µM),relative viability (Dinaciclib + Alpelisib; first compound 0.09487 µM),relative viability (Dinaciclib + Alpelisib; first compound 0.3 µM)
HCC-15,0.596,0.113,0.0869,0.107,0.521,0.139,0.13,0.129,0.122,0.1,0.102,0.141,0.652,0.12,0.109,0.107,0.863,0.169,0.0978,0.0964
NCI-H2126,0.784,0.381,0.251,0.204,0.524,0.393,0.187,0.176,0.873,0.202,0.201,0.21,1.08,0.803,0.194,0.312,0.732,0.399,0.209,0.196
NCI-H2085,0.748,0.264,0.243,0.196,0.589,0.404,0.217,0.236,0.417,0.195,0.186,0.169,1.16,0.259,0.194,0.241,0.976,0.346,0.228,0.258
BEN,0.289,0.264,0.191,0.198,0.88,0.572,0.245,0.313,0.323,0.221,0.174,0.133,0.866,0.845,0.153,0.176,1.24,0.517,0.207,0.236
NCI-H650,0.57,0.203,0.158,0.15,0.308,0.204,0.118,0.124,0.54,0.185,0.112,0.0731,1.02,0.182,0.165,0.142,1.21,0.192,0.165,0.176
LCLC-103H,0.451,0.483,0.111,0.109,0.754,0.648,0.297,0.242,1.08,0.473,0.12,0.102,0.834,0.623,0.0915,0.094,0.934,0.844,0.248,0.113
PC-14,0.66,0.0841,0.0393,0.0423,0.157,0.0718,0.0642,0.0671,0.146,0.0837,0.0681,0.0507,0.841,0.543,0.0986,0.0886,0.947,0.515,0.0838,0.0509
COR-L23,0.608,0.0953,0.0761,0.0902,0.388,0.114,0.0933,0.0952,0.226,0.0887,0.0655,0.0681,0.871,0.118,0.0996,0.0936,0.637,0.0835,0.0694,0.0603
NCI-H1915,0.525,0.169,0.156,0.138,0.253,0.24,0.131,0.12,0.292,0.142,0.0885,0.093,0.731,0.193,0.124,0.173,0.866,0.202,0.108,0.108
